Assay results taken from US9403806B1, “Cognition enhancing compounds and compositions, methods of making, and methods of treating” (NeuroSolis, Inc., priority 2010, dated 2016).

Tested on: CD-I mice
Test: Apomorphine induced climbing model of psychosis
Format: in vivo
Conditions: mice, sc, apomorphine 2 mg/kg (FIG. 1)
Procedure: As described in Costall et. al. European Journal of Pharmacology 1978, 50, 39. individual CD-I mice, 1-2 months old, were placed in a cylindrical wire mesh cage (13.2 cm high×13.2 cm diameter) constructed of steel wire 1 mm thick spaced at 1.2 cm^2. Cylinders were placed in a standard OptiMICE mouse cage (29×32×9×29 cm and 14 cm high) with adequate wood chip bedding provided. Observations of climbing (defined as 3 or more paws of the ground) were carried out every 5 minutes at a duration of 1 minute for […]. Animals were injected subcutaneously under isoflurane anesthesia with test compounds, reference compounds, which included clozapine, haloperidol, olanzapine and xanomeline, or PBS as a control. This was followed 5 minutes later by 2 mg/kg apomorphine hydrochloride. All drugs were dissolved in PBS or a mixture of (by volume) 96% PBS and 4% hydroxypropyl-beta-cyclodextrin, and dosed at a rate of 5 ml per kilogram of body weight. Following injections, animals were replaced in the mesh cages and observed for climbing (defined as 3 or more paws off the ground) every 5 minutes for 1 minute for 60 minutes after dosing.

CCc1noc(C2CN=CNC2)n1 (stereo not shown) [MCD-386, 3-ethyl-5-(1,4,5,6-tetrahydropyrimidin-5-yl)-1,2,4-oxadiazole]
activity in the apomorphine induced climbing model: inactive
